The first assay has as its system Digitaria sanguinalis. The assay is described as follows: Pre-emergence herbicidal effect against DIGSA. It counts as in vivo. The conditions noted are these: 1280 g/ha, visual score after 3 weeks, 100% = plants have died, 0% = like control plants. The procedure, abridged:
(§1)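 Visual scoring of plant damage, in percent relative to untreated controls, was done 3 weeks after treatment. Compounds, as wettable powders or emulsion concentrates, were applied to covering soil over freshly sown seeds at a water rate of 600 to 800 L/ha with 0.2% wetting agent.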
For `CCOC(=O)CSc1nn(-c2ccccc2F)c(-c2ccc(F)c(F)c2)c1C#N` [Example I-012], the “Pre-emergence action against DIGSA” value is 100%.

A further assay relates to Echinochloa crus-galli. The assay is described as follows: Pre-emergence herbicidal effect against ECHCG. The assay is classed as in vivo. The note with it: 1280 g/ha, visual score after 3 weeks, 100% = plants have died, 0% = like control plants. The gist of the method: as §1
As to `CCOC(=O)CSc1nn(-c2ccccc2F)c(-c2ccc(F)c(F)c2)c1C#N` [Example I-012], the “Pre-emergence action against ECHCG” value was 100%.
Turning to `COC(=O)CN(C)C(=O)CSc1nn(-c2ccccc2F)c(-c2ccc(F)c(F)c2)c1Cl` [VII-002], the “Pre-emergence action against ECHCG” value came out at 100%.

The test system of the next assay is Lolium rigidum. The assay is described as follows: Pre-emergence herbicidal effect against LOLRI. The assay is classed as in vivo. The note with it: 1280 g/ha, visual score after 3 weeks, 100% = plants have died, 0% = like control plants. The gist of the method: as §1
Turning to `CCOC(=O)CSc1nn(-c2ccccc2F)c(-c2ccc(F)c(F)c2)c1C#N` [Example I-012], the “Pre-emergence action against LOLRI” value is given as 90%.

The next assay concerns Poa annua. The assay is described as follows: Pre-emergence herbicidal effect against POAAN. It counts as in vivo. The note with it: 1280 g/ha, visual score after 3 weeks, 100% = plants have died, 0% = like control plants. The procedure, abridged: as §1
As for `CCOC(=O)CSc1nn(-c2ccccc2F)c(-c2ccc(F)c(F)c2)c1C#N` [Example I-012], the “Pre-emergence action against POAAN” value is 100%.

A further assay deals with Setaria viridis. The assay is described as follows: Pre-emergence herbicidal effect against SETVI. The note with it: 1280 g/ha, visual score after 3 weeks, 100% = plants have died, 0% = like control plants. It counts as in vivo. The gist of the method:
as §1
For the compound `CCOC(=O)CSc1nn(-c2ccccc2F)c(-c2ccc(F)c(F)c2)c1C#N` [Example I-012], the “Pre-emergence action against SETVI” value amounted to 100%.
On the same count and under the same terms, with `COC(=O)CN(C)C(=O)CSc1nn(-c2ccccc2F)c(-c2ccc(F)c(F)c2)c1Cl` [VII-002] the figure was 100%.

The next assay concerns Amaranthus retroflexus. The assay is described as follows: Pre-emergence herbicidal effect against AMARE. The note with it: 1280 g/ha, visual score after 3 weeks, 100% = plants have died, 0% = like control plants. The assay is classed as in vivo. The gist of the method:
as §1
`CCOC(=O)CSc1nn(-c2ccccc2F)c(-c2ccc(F)c(F)c2)c1C#N` [Example I-012]: the “Pre-emergence action against AMARE” value was 100%.

Another assay deals with Bassia scoparia. The assay is described as follows: Pre-emergence herbicidal effect against KCHSC. It counts as in vivo. The conditions noted are these: 1280 g/ha, visual score after 3 weeks, 100% = plants have died, 0% = like control plants. An excerpt:
1. Pre-emergence herbicidal effect and crop plant compatibility Seeds of monocotyledonous and dicotyledonous weed plants and crop plants are laid out in sandy loam soil in wood-fibre pots and covered with soil. The compounds of the invention, formulated in the form of wettable powders (WP) or as emulsion concentrates (EC), are then applied to the surface of the covering soil as aqueous suspension or emulsion at a water application rate equating to 600 to 800 L/ha with addition of 0.2% wetting agent. After the treatment, the pots are placed in a greenhouse and kept under good growth conditions for the trial plants. The damage to the test plants is scored visually after a test period of 3 weeks by comparison with untreated controls (herbicidal activity in percent (%): 100% activity=the plants have died, 0% activity=like control plants). [table]
As to `COC(=O)CN(C)C(=O)CSc1nn(-c2ccccc2F)c(-c2ccc(F)c(F)c2)c1Cl` [VII-002], the “Pre-emergence action against KCHSC” value was 90%.

A further assay has as its system Tripleurospermum inodorum. The assay is described as follows: Pre-emergence herbicidal effect against MATIN. It counts as in vivo. The conditions noted are these: 1280 g/ha, visual score after 3 weeks, 100% = plants have died, 0% = like control plants. The procedure, abridged:
as §1
`CCOC(=O)CSc1nn(-c2ccccc2F)c(-c2ccc(F)c(F)c2)c1C#N` [Example I-012]: the “Pre-emergence action against MATIN” value stood at 100%.

In a further assay the test system is Stellaria media. The assay is described as follows: Pre-emergence herbicidal effect against STEME. It counts as in vivo. The conditions noted are these: 1280 g/ha, visual score after 3 weeks, 100% = plants have died, 0% = like control plants. The gist of the method:
as §1
With `CCOC(=O)CSc1nn(-c2ccccc2F)c(-c2ccc(F)c(F)c2)c1C#N` [Example I-012], the “Pre-emergence action against STEME” value is reported as 100%.
With `COC(=O)CN(C)C(=O)CSc1nn(-c2ccccc2F)c(-c2ccc(F)c(F)c2)c1Cl` [VII-002], the “Pre-emergence action against STEME” value turned out to be 100%.

The test system of the next assay is Veronica persica. The assay is described as follows: Pre-emergence herbicidal effect against VERPE. The assay is classed as in vivo. The note with it: 1280 g/ha, visual score after 3 weeks, 100% = plants have died, 0% = like control plants. The gist of the method: as §1
Take `CCOC(=O)CSc1nn(-c2ccccc2F)c(-c2ccc(F)c(F)c2)c1C#N` [Example I-012]: the “Pre-emergence action against VERPE” value is given as 100%.
With `COC(=O)CN(C)C(=O)CSc1nn(-c2ccccc2F)c(-c2ccc(F)c(F)c2)c1Cl` [VII-002], the “Pre-emergence action against VERPE” value is listed as 90%.

The next assay relates to Alopecurus myosuroides. The assay is described as follows: Post-emergence herbicidal effect against ALOMY. The assay is classed as in vivo. The note with it: 1280 g/ha, visual score after about 3 weeks, 100% = plants have died, 0% = like control plants. The gist of the method:
(§2)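 Greenhouse test, sandy loam soil; one-leaf-stage plants sprayed 2–3 wk after sowing. Percent action rated by eye ~3 wk later against untreated plants.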
`CCOC(=O)CSc1nn(-c2ccccc2F)c(-c2ccc(F)c(F)c2)c1C#N` [Example I-012]: the “Post-emergence action against ALOMY” value was 100%.

Another assay deals with Digitaria sanguinalis. The assay is described as follows: Post-emergence herbicidal effect against DIGSA. It counts as in vivo. The conditions noted are these: 1280 g/ha, visual score after about 3 weeks, 100% = plants have died, 0% = like control plants. The procedure, abridged:
as §2
`CCOC(=O)CSc1nn(-c2ccccc2F)c(-c2ccc(F)c(F)c2)c1C#N` [Example I-012]: the “Post-emergence action against DIGSA” value came to 100%.

A further assay concerns Echinochloa crus-galli. The assay is described as follows: Post-emergence herbicidal effect against ECHCG. The assay is classed as in vivo. The conditions noted are these: 1280 g/ha, visual score after about 3 weeks, 100% = plants have died, 0% = like control plants. The procedure, abridged:
as §2
Take `CCOC(=O)CSc1nn(-c2ccccc2F)c(-c2ccc(F)c(F)c2)c1C#N` [Example I-012]: the “Post-emergence action against ECHCG” value stood at 100%.

In another assay the test system is Poa annua. The assay is described as follows: Post-emergence herbicidal effect against POAAN. The assay is classed as in vivo. The conditions noted are these: 1280 g/ha, visual assessment about 3 weeks after treatment, 100% = plants have died, 0% = like control plants. The procedure, abridged:
as §2
On to `CCOC(=O)CSc1nn(-c2ccccc2F)c(-c2ccc(F)c(F)c2)c1C#N` [Example I-012], for which the “Post-emergence action against POAAN” value is given as 100%.
Consider `COC(=O)CN(C)C(=O)CSc1nn(-c2ccccc2F)c(-c2ccc(F)c(F)c2)c1Cl` [VII-002], for which the “Post-emergence action against POAAN” value is given as 100%.

A further assay concerns Setaria viridis. The assay is described as follows: Post-emergence herbicidal effect against SETVI. It counts as in vivo. The conditions noted are these: 1280 g/ha, visual assessment about 3 weeks after treatment, 100% = plants have died, 0% = like control plants. The gist of the method:
as §2
Consider `CCOC(=O)CSc1nn(-c2ccccc2F)c(-c2ccc(F)c(F)c2)c1C#N` [Example I-012], for which the “Post-emergence action against SETVI” value is on record as 90%.
As for `COC(=O)CN(C)C(=O)CSc1nn(-c2ccccc2F)c(-c2ccc(F)c(F)c2)c1Cl` [VII-002], the “Post-emergence action against SETVI” value came out at 90%.

The next assay has as its system Amaranthus retroflexus. The assay is described as follows: Post-emergence herbicidal effect against AMARE. The note with it: 1280 g/ha, visual assessment about 3 weeks after treatment, 100% = plants have died, 0% = like control plants. It counts as in vivo. The method, then:
[table] 2. Post-emergence herbicidal effect and crop plant compatibility Seeds of monocotyledonous and dicotyledonous weed and crop plants are laid out in sandy loam soil in wood-fibre pots, covered with soil and cultivated in a greenhouse under good growth conditions. 2 to 3 weeks after sowing, the test plants are treated at the one-leaf stage. The compounds of the invention, formulated in the form of wettable powders (WP) or as emulsion concentrates (EC), are then sprayed onto the green parts of the plants as aqueous suspension or emulsion at a water application rate equating to 600 to 800 l/ha with addition of 0.2% wetting agent. After the test plants have been left to stand in the greenhouse under optimal growth conditions for about 3 weeks, the action of the preparations is assessed visually in comparison to untreated controls (herbicidal action in percent (%): 100% activity=the plants have died, 0% activity=like control plants).
Turning to `CCOC(=O)CSc1nn(-c2ccccc2F)c(-c2ccc(F)c(F)c2)c1C#N` [Example I-012], the “Post-emergence action against AMARE” value is reported as 90%.

The test system of another assay is Bassia scoparia. The assay is described as follows: Post-emergence herbicidal effect against KCHSC. It counts as in vivo. The conditions noted are these: 1280 g/ha, visual assessment about 3 weeks after treatment, 100% = plants have died, 0% = like control plants. The procedure, abridged: as §2
Regarding `CCOC(=O)CSc1nn(-c2ccccc2F)c(-c2ccc(F)c(F)c2)c1C#N` [Example I-012], the “Post-emergence action against KCHSC” value was determined as 90%.

The next assay relates to Tripleurospermum inodorum. The assay is described as follows: Post-emergence herbicidal effect against MATIN. The assay is classed as in vivo. The note with it: 1280 g/ha, visual assessment about 3 weeks after treatment, 100% = plants have died, 0% = like control plants. The gist of the method:
as §2
`CCOC(=O)CSc1nn(-c2ccccc2F)c(-c2ccc(F)c(F)c2)c1C#N` [Example I-012]: the “Post-emergence action against MATIN” value was found to be 90%.
For the compound `COC(=O)CN(C)C(=O)CSc1nn(-c2ccccc2F)c(-c2ccc(F)c(F)c2)c1Cl` [VII-002], the “Post-emergence action against MATIN” value was found to be 90%.

The subject of another assay is Stellaria media. The assay is described as follows: Post-emergence herbicidal effect against STEME. The conditions noted are these: 1280 g/ha, visual assessment about 3 weeks after treatment, 100% = plants have died, 0% = like control plants. It counts as in vivo. The gist of the method:
as §2
For `CCOC(=O)CSc1nn(-c2ccccc2F)c(-c2ccc(F)c(F)c2)c1C#N` [Example I-012], the “Post-emergence action against STEME” value amounted to 100%.
Turning to `COC(=O)CN(C)C(=O)CSc1nn(-c2ccccc2F)c(-c2ccc(F)c(F)c2)c1Cl` [VII-002], the “Post-emergence action against STEME” value is recorded as 90%.

The test system of the next assay is Veronica persica. The assay is described as follows: Post-emergence herbicidal effect against VERPE. The assay is classed as in vivo. The note with it: 1280 g/ha, visual assessment about 3 weeks after treatment, 100% = plants have died, 0% = like control plants. The gist of the method:
as §2
`CCOC(=O)CSc1nn(-c2ccccc2F)c(-c2ccc(F)c(F)c2)c1C#N` [Example I-012]: the “Post-emergence action against VERPE” value was 100%.
`COC(=O)CN(C)C(=O)CSc1nn(-c2ccccc2F)c(-c2ccc(F)c(F)c2)c1Cl` [VII-002]: the “Post-emergence action against VERPE” value came out at 90%.

Source of the values: patent US20230126893A1, “[(1,4,5-TRISUBSTITUTED-1H-PYRAZOL-3-YL)SULFANYL]ACETIC ACID DERIVATIVES, SALTS THEREOF, AND USE THEREOF AS ACTIVE HERBICIDAL INGREDIENTS” (BAYER AKTIENGESELLSCHAFT, priority 2020, published 2023).
